From article PMC11424460, “Inhibitory effects of calcium channel blockers nisoldipine and nimodipine on ivacaftor metabolism and their underlying mechanism” (Frontiers in Pharmacology, 2024)

Tests used:
[1] = tested on: rat liver microsomes (RLM); conditions: read-out: Km (Michaelis-Menten constant); RLM 0.3 mg/mL, 40 min incubation
Experimental: (§1) This system was made up of 200 μL of incubation solution consisting of 0.3 mg/mL RLM or 0.4 mg/mL HLM, 1.0 mM NADPH, pH 7.4 PBS and ivacaftor. […] In HLM, a range of concentrations (0.1, 1, 2, 4, 12, 25 μM) of ivacaftor was used to determine Km. The solution should be pre-incubated at 37°C for 5 min before adding NADPH. Following the addition of NADPH, the mixture should be incubated for 40 min. The reaction should then be stopped at −80°C. After the enzyme reaction was completed, 20 μL of 500 ng/mL IS solution and 400 μL acetonitrile (protein precipitating agent) were added to the mixture. The mixture was vortexed for 2 min and then centrifuged at 13,000 rpm for 10 min. After centrifugation, 100 μL of the supernatant was quantified using UPLC-MS/MS.
(§2) Km values, IC50 values, Lineweaver-Burk plots and mean plasma concentration-time curves were all generated using GraphPad Prism 9.0 software (GraphPad Software, Inc., United States). Pharmacokinetic parameters of ivacaftor and M1 were obtained by analyzing them using the non-compartmental model of Drug and Statistics (DAS) (version 3.0, Mathematical Pharmacology Professional Committee of China, Shanghai, China), and a one-way ANOVA was performed to compare the pharmacokinetics of the three groups of rats using SPSS (version 26.0; SPSS Inc., Chicago, IL, United States). A P-value <0.05 was considered statistically significant. […]

[2] = tested on: human liver microsomes (HLM); conditions: read-out: Km (Michaelis-Menten constant); HLM 0.4 mg/mL, 40 min incubation
Experimental: as §1, §2

[3] = set-up: method as in Schneider et al., 2015; conditions: ref Schneider et al., 2015; cited from earlier work
[4] = Pharmacokinetics of ivacaftor and M1 in Sprague-Dawley rats with or without nisoldipine or nimodipine; type: in vivo; conditions: male, rat, plasma, po, ivacaftor 10 mg/kg gavage, nisoldipine 1 mg/kg or nimodipine 10 mg/kg 30 min before
Experimental: The animal study was supervised and approved by Ethics Committee of The First Affiliated Hospital of Wenzhou Medical University (WYYY-IACUC-AEC-2023-065). 12 Sprague-Dawley male rats (220 ± 20 g) were purchased from the First Affiliated Hospital of Wenzhou Medical University and randomly divided into three groups: group A (control), group B (nisoldipine), and group C (nimodipine), with 4 rats in each group. A 12 h fast with no restriction on water intake was conducted prior to the experiment. […] Group B were received nisoldipine (1 mg/kg) via gavage, while group C were received nimodipine (10 mg/kg) via the same method. Group A were given the same volume of CMC-Na to serve as a control. […] Before UPLC-MS/MS analysis, supernatant was mixed with 300 μL acetonitrile and 10 μL IS (500 ng/mL), and then vortexed for 2 min and centrifuged at 13,000 rpm for 10 min at 4°C. Finally, a 100 μL sample of supernatant was collected for UPLC-MS/MS analysis. […] SPSS Inc., Chicago, IL, United States). […] Data were represented as mean ± standard deviation (SD).

[5] = set-up: method as in Harbeson et al., 2017; conditions: male rats, gavage of 10 mg/kg ivacaftor alone, PEG400 as solvent; ref Harbeson et al., 2017; cited from earlier work

Structure (SMILES): CC(C)(C)c1cc(C(C)(C)C)c(NC(=O)c2c[nH]c3ccccc3c2=O)cc1O [Ivacaftor, N-(2,4-Di-tert-butyl-5-hydroxyphenyl)-4-oxo-1,4-dihydroquinoline-3-carboxamide]
- Km [1]: 8.8 µM
- Km [2]: 6.8 µM
- plasma protein binding [3]: > 97%
- AUC(0-inf) ([4]; n = 4): 9360 ng·h/mL
- AUC(0-t) ([4]; n = 4): 8410 ng·h/mL
- Cmax ([4]; n = 4): 676 ± 242 ng/mL
- CL/F ([4]; n = 4, read-out: CLz/F of ivacaftor (converted)): 18.2 mL/min/kg
- half-life ([4]; n = 4, read-out: t1/2 of ivacaftor (converted)): 12.2 ± 4.8 h
- AUC(0–24h) of ivacaftor [5]: 22,177 ng/mL*h
